Values joined by “and” are separate entries in the source; they are usually repeats but may differ in a detail not shown here. Identical values can stand only once.
Tests used:
Trypanosoma cruzi [1] = test: microbe, parasite or virus in culture; type: functional, organism-based, Tulahuen LacZ, Clone C4
[2] = DNDI: Cytotoxicity against L-6 rat myoblasts from skeletal muscle cells; settings: L6 rat skeletal muscle myoblast cells
Trypanosoma cruzi [3] = test: microbe, parasite or virus in culture; type: functional, Tulahuen LacZ, Clone C4
[4] = Trypanosoma cruzi, Tulahuen LacZ, Clone C4

| SMILES | IC50 (Trypanosoma cruzi [1]; [4]) | IC50 ([2]; IC50) | IC90 (Trypanosoma cruzi [3]; [4]) | IC50 (Trypanosoma cruzi [1]) | IC90 (Trypanosoma cruzi [3]) | IC50 [2] |
| --- | --- | --- | --- | --- | --- | --- |
| FC(F)(F)c1ccc(C(NC2CCN(c3ccccc3C(F)(F)F)CC2)c2cccnc2)cc1 (stereo unspecified) | 9 nM | 45800 nM | 31.5 nM |  |  |  |
| Cn1cccc1C(O)(c1ccc(Cl)cc1)c1ccc(Cl)cc1 | > 10000 nM | 55800 nM | > 10000 nM |  |  |  |
| CS(=O)(=O)N1CCN(C(c2cncnc2)c2ccc(Cl)cc2F)CC1 (stereo unspecified) | 444 nM | > 100000 nM | 724 nM | 390 nM | 850 nM |  |
| OC(c1ccc(Cl)cc1)(c1cccnc1)c1c(F)cccc1F (stereo unspecified) | 80 nM |  | 182 nM |  |  | > 100000 nM |
| O=C(NC(c1ccc(C(F)(F)F)cc1)c1cnccn1)C1CCCCC1 (stereo unspecified) | 1570 nM | > 100000 nM | 4790 nM |  |  |  |
| OC(c1cccnc1)(c1cccc(C(F)(F)F)c1)c1ccccc1Cl (stereo unspecified) | 446 nM |  | 749 nM |  |  | 58000 nM |
| CC(C)(C)OC(=O)NC1CCN(C(c2cnccn2)c2ccc(F)cc2F)CC1 (stereo unspecified) | 260 nM | > 100000 nM | 650 nM |  |  |  |
| CC(C)Oc1ccc(C(c2cccnc2)N2CCC(NC(=O)C3CC3)CC2)cc1 (stereo unspecified) | 380 nM | > 100000 nM | 860 nM |  |  |  |
| CC(C)(C)C(=O)N1CCC(NC(c2ccc(C(F)(F)F)cc2)c2cncs2)CC1 (stereo unspecified) | 34 nM | > 100000 nM | 94 nM |  |  |  |
| OC(c1cccnc1)(c1cccs1)c1ccccc1Cl (stereo unspecified) | 345 nM | > 100000 nM | 670 nM |  |  |  |
| CC(C)C(=O)N1CCN(C(c2ccc(Cl)cc2)c2cncnc2)CC1 (stereo unspecified) | 370 nM | > 100000 nM | 940 nM |  |  |  |
| Fc1ccc(N2CCC(NC(c3ccc(Cl)cc3)c3cccnc3)CC2)cc1C(F)(F)F (stereo unspecified) | 24 nM | 52300 nM | 63 nM |  |  |  |
| O=C(NC1CC1)N1CCN(C(c2cncnc2)c2ccc(C(F)(F)F)cc2F)CC1 (stereo unspecified) | 490 nM | > 100000 nM | 792 nM |  |  |  |
| Cc1noc(C)c1C(=O)NC1CCN(C(c2ccc(C#N)cc2)c2cccnc2)CC1 (stereo unspecified) | 51.5 nM | > 100000 nM | 104 nM |  |  |  |
| O=S(=O)(NC1CCN(C(c2ccc(C(F)(F)F)cc2)c2cnccn2)CC1)C1CCCCC1 (stereo unspecified) | 280 nM | 57900 nM | 780 nM |  |  |  |
| Fc1cc(Cl)ccc1C(NC1CCN(c2ccc(F)c(C(F)(F)F)c2)CC1)c1cccnc1 (stereo unspecified) | 25.6 nM | 58600 nM | 64 nM |  |  |  |
| Cn1ccnc1C(=O)N1CCC(NC(c2ccc(C(F)(F)F)cc2)c2cccnc2)CC1 (stereo unspecified) | 81.5 nM | > 100000 nM | 208 nM |  |  |  |
| CC(C)(C)OC(=O)NC1CCN(C(c2cccnc2)c2ccc(Cl)cc2F)CC1 (stereo unspecified) | 10 nM | 55100 nM | 46 nM |  |  |  |
| OC(c1ccc(Cl)cc1)(c1cccnc1)c1cnc(Cl)s1 (stereo unspecified) | 490 nM | > 100000 nM | > 1000 nM |  |  |  |
| CCC(=O)N1CCC(NC(c2cnccn2)c2ccc(F)cc2F)CC1 (stereo unspecified) | > 1000 nM | > 100000 nM | > 1000 nM |  |  |  |
| CCCCC(O)(c1ccc(Cl)cc1)c1cnccn1 (stereo unspecified) | 330 nM | > 100000 nM | 3000 nM |  |  |  |
| OC(c1ccc(Cl)cc1)(c1cccnc1)c1nccs1 (stereo unspecified) | 201 nM | > 100000 nM | 505 nM |  |  |  |
| CCn1nc(C)cc1C(=O)NC1CCN(C(c2ccc(C#N)cc2)c2cccnc2)CC1 (stereo unspecified) | 504 nM | > 100000 nM | 934 nM |  |  |  |
| Cc1nc(C(=O)NC2CCN(C(c3ccc(C(F)(F)F)cc3)c3cccnc3)CC2)co1 (stereo unspecified) | 19.5 nM | 56400 nM | 44 nM |  |  |  |
| O=C(OCc1ccccc1)N1CCN(C(c2ccc(Cl)cc2)c2cccnc2)CC1 (stereo unspecified) | 34 nM | 51600 nM | 99 nM |  |  |  |

| SMILES | IC50 (Trypanosoma cruzi [1]; [4]) | IC50 ([2]; IC50) | IC90 (Trypanosoma cruzi [3]; [4]) | IC50 (Trypanosoma cruzi [1]) | IC90 (Trypanosoma cruzi [3]) | IC50 [2] |
| --- | --- | --- | --- | --- | --- | --- |
| CC(C)(C)OC(=O)N1CCN(C(c2ccc(Cl)cc2)c2cccnc2)CC1 (stereo unspecified) | 27 nM | 47800 nM | 68 nM |  |  |  |
| O=C(NC1CCN(C(c2cncnc2)c2ccc(Cl)cc2F)CC1)c1ccccc1F (stereo unspecified) | 17.5 nM | > 100000 nM | 95.5 nM |  |  |  |
| CC(C)(C)c1cc(N2CCC(NC(c3ccc(Cl)cc3)c3cccnc3)CC2)[nH]n1 (stereo unspecified) | 19 nM | 50200 nM | 47 nM |  |  |  |
| OC(c1ccc(Cl)cc1)(c1ccccn1)c1ccccc1Cl (stereo unspecified) | 27400 nM |  | 90000 nM |  |  | > 100000 nM |
| O=S(=O)(Cc1ccccc1)N1CCN(C(c2ccc(Cl)cc2)c2cncnc2)CC1 (stereo unspecified) | 220 nM | 63000 nM | 620 nM |  |  |  |
| O=S(=O)(c1ccc(C(F)(F)F)cc1)N1CCN(C(c2cncnc2)c2ccc(Cl)cc2F)CC1 (stereo unspecified) | 76 nM | 74700 nM | 220 nM |  |  |  |
| CCS(=O)(=O)NC(c1ccc(C(F)(F)F)cc1)c1cnccn1 (stereo unspecified) | > 1000 nM | > 100000 nM | > 1000 nM |  |  |  |
| CCN(CC)C(=O)N1CCC(NC(c2ccc(C(F)(F)F)cc2)c2cccnc2)CC1 (stereo unspecified) | 36 nM | 90800 nM | 250 nM |  |  |  |
| N#Cc1ccc(C(c2cccnc2)N2CCC(NC(=O)c3c(F)cccc3F)CC2)cc1 (stereo unspecified) | 21.5 nM | > 100000 nM | 48 nM | 18.5 nM | 55.5 nM |  |
| Cc1ccncc1C(O)(c1ccc(Cl)cc1)c1ccc(C(F)(F)F)cc1 (stereo unspecified) | 42 nM | 56500 nM | 140 nM |  |  |  |
| CC(C)Oc1ccc(C(c2cccnc2)N2CCN(C(=O)C(C)C)CC2)cc1 (stereo unspecified) | 35 nM | > 100000 nM | 200 nM |  |  |  |
| Cc1noc(N2CCN(C(c3ccc(C#N)cc3)c3cccnc3)CC2)n1 (stereo unspecified) | 64 nM | > 100000 nM | 127 nM |  |  |  |
| Cc1ncoc1C(=O)N1CCC(NC(c2ccc(C(F)(F)F)cc2)c2cccnc2)CC1 (stereo unspecified) | 140 nM | > 100000 nM | 540 nM |  |  |  |
| CC(=O)N1CCN(C(c2ccc(Cl)cc2)c2cccnc2)CC1 (stereo unspecified) |  | > 100000 nM | 960 nM | 490 nM [middle of 4 runs] | 820 nM and 930 nM and 520 nM |  |
| Clc1ccc(C(c2cccnc2)n2cccn2)cc1 (stereo unspecified) | 290 nM | > 100000 nM | 570 nM |  |  |  |
| COc1ccc(CN2CCC(NC(c3cccnc3)c3ccc(Cl)cc3F)CC2)cc1 (stereo unspecified) | 370 nM | 52000 nM | 4380 nM |  |  |  |
| Clc1ccc(C(c2cccnc2)c2cccs2)cc1 (stereo unspecified) | 17 nM | > 100000 nM | 45 nM |  |  |  |
| Cc1noc(C)c1C(=O)N1CCC(NC(c2ccc(C(F)(F)F)cc2)c2cncs2)CC1 (stereo unspecified) | 140 nM | > 100000 nM | 516 nM |  |  |  |
| O=S(=O)(NC1CCN(C(c2ccc(C(F)(F)F)cc2)c2cnccn2)CC1)c1ccc(Cl)cc1 (stereo unspecified) | 700 nM | 18900 nM | > 1000 nM |  |  |  |
| CS(=O)(=O)NC1CCN(C(c2ccc(C(F)(F)F)cc2)c2cccnc2)CC1 (stereo unspecified) | 50 nM | > 100000 nM | 150 nM |  |  |  |
| CC(C)CC(=O)NC1CCN(C(c2ccc(C(F)(F)F)cc2)c2cnccn2)CC1 (stereo unspecified) | 280 nM | > 100000 nM | 700 nM |  |  |  |
| O=C(C1CC1)N1CCC(NC(c2ccc(C(F)(F)F)cc2)c2cnccn2)CC1 (stereo unspecified) | 470 nM | > 100000 nM | 850 nM |  |  |  |
| O=S(=O)(c1ccc(C(F)(F)F)cc1)N1CCN(C(c2ccc(Cl)cc2)c2cncnc2)CC1 (stereo unspecified) | 290 nM | 57000 nM | > 1000 nM |  |  |  |
| O=C(NC1CCN(C(c2ccc(Cl)cc2)c2cccnc2)CC1)c1ccccc1 (stereo unspecified) | 10 nM | 64100 nM | 430 nM |  |  |  |
| O=C(C1CC1)N1CCN(C(c2cncnc2)c2ccc(Cl)cc2F)CC1 (stereo unspecified) | 180 nM | > 100000 nM |  | 171 nM | 306 nM and 614 nM |  |

From ChEMBL document CHEMBL1862790, “Optimisation of fenarimol series for the treatment of Chagas disease”
